In ChEMBL document CHEMBL1155464, “Potent tricyclic pyrazole tetrazole agonists of the nicotinic acid receptor (GPR109a)” (Bioorg Med Chem Lett, 2010):
Activity calls are given as the source filed them. No cut-off for these calls is given here.

Key:
[1] = target: Hydroxycarboxylic acid receptor 3 (Homo sapiens) (UniProt P49019); test: Agonist activity at GPR109b; format: functional
[2] = Antidyslipidemic activity in human adipocytes assessed as inhibition of isoproteranol-induced production of free fatty acids; conditions: Adipocyte
Mus musculus [3] = test: Antidyslipidemic activity in po dosed mouse assessed as reduction of plasma free fatty acids; format: functional
[4] = target: Hydroxycarboxylic acid receptor 3 (Homo sapiens) (UniProt P49019); test: Agonist activity at GPR109b at 5 to 10 uM; format: functional
Mus musculus [5] = organism: Mus musculus; test: Inhibition of niacin-induced vasodilation in mouse; format: functional, organism-based
Mus musculus [6] = test: Induction of vasodilation in mouse assessed as laser doppler changes in ears at 100 mg/kg; format: functional, organism-based; design: dose 100 mg/kg
Mus musculus [7] = organism: Mus musculus; test: Inhibition of prostaglandin-induced vasodilation in mouse; format: functional, organism-based
[8] = Cmax in mouse at 3 mg/kg, iv and 10 mg/kg, po; format: ADME, organism-based; conditions: in vivo
[9] = Cmax in monkey at 3 mg/kg, iv and 10 mg/kg, po; format: ADME, organism-based, Macaca mulatta; conditions: rhesus monkey, in vivo
[10] = Volume of distribution at steady state in monkey at 3 mg/kg, iv and 10 mg/kg, po; format: ADME, organism-based, Macaca mulatta; conditions: rhesus monkey, in vivo, read-out: Vdss
[11] = Volume of distribution at steady state in mouse at 3 mg/kg, iv and 10 mg/kg, po; format: ADME, organism-based; conditions: in vivo, read-out: Vdss
[12] = Plasma clearance in monkey at 3 mg/kg, iv and 10 mg/kg, po; format: ADME, organism-based, Macaca mulatta; conditions: rhesus monkey
[13] = Volume of distribution at steady state in dog at 3 mg/kg, iv and 10 mg/kg, po; format: ADME, organism-based, Canis lupus familiaris; conditions: in vivo, read-out: Vdss
[14] = Cmax in dog at 3 mg/kg, iv and 10 mg/kg, po; format: ADME, organism-based, Canis lupus familiaris; conditions: in vivo
[15] = Oral bioavailability in monkey at 10 mg/kg; format: ADME, organism-based, Macaca mulatta; conditions: rhesus monkey, in vivo
[16] = Plasma clearance in rat at 3 mg/kg, iv and 10 mg/kg, po; format: ADME, organism-based
[17] = Cmax in rat at 3 mg/kg, iv and 10 mg/kg, po; format: ADME, organism-based; conditions: in vivo
[18] = Oral bioavailability in mouse at 10 mg/kg; format: ADME, organism-based; conditions: in vivo
[19] = Half life in mouse at 3 mg/kg, iv and 10 mg/kg, po; format: ADME, organism-based; conditions: in vivo
[20] = Plasma clearance in mouse at 3 mg/kg, iv and 10 mg/kg, po; format: ADME, organism-based
[21] = Oral bioavailability in dog at 10 mg/kg; format: ADME, organism-based, Canis lupus familiaris; conditions: in vivo
[22] = Plasma clearance in dog at 3 mg/kg, iv and 10 mg/kg, po; format: ADME, organism-based, Canis lupus familiaris
[23] = Oral bioavailability in rat at 10 mg/kg; format: ADME, organism-based; conditions: in vivo
[24] = Volume of distribution at steady state in rat at 3 mg/kg, iv and 10 mg/kg, po; format: ADME, organism-based; conditions: in vivo, read-out: Vdss
[25] = Half life in monkey at 3 mg/kg, iv and 10 mg/kg, po; format: ADME, organism-based, Macaca mulatta; conditions: rhesus monkey, in vivo
[26] = Half life in dog at 3 mg/kg, iv and 10 mg/kg, po; format: ADME, organism-based, Canis lupus familiaris; conditions: in vivo
[27] = Half life in rat at 3 mg/kg, iv and 10 mg/kg, po; format: ADME, organism-based; conditions: in vivo

Chain of Hydroxycarboxylic acid receptor 3 (Homo sapiens) (P49019 whole entry): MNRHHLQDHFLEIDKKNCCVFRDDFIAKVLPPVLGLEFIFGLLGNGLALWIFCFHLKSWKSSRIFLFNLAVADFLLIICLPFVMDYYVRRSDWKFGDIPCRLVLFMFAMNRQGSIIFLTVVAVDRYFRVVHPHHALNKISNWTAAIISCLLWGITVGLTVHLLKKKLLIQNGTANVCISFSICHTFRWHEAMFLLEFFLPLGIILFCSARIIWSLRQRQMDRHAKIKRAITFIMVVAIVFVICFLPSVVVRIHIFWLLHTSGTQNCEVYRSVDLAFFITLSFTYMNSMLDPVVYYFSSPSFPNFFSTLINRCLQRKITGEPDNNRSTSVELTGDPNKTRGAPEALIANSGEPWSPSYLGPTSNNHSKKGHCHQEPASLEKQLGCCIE

CC(C)C[C@H]1C2Cc3c(-c4nnn[nH]4)n[nH]c3[C@H]21 (stereo not given in full)
Activity [1]: inactive

CC1(C)[C@@H]2c3[nH]nc(-c4nnn[nH]4)c3C[C@@H]21
Activity [1]: inactive

C/C=C/[C@@H]1[C@H]2Cc3c(-c4nnn[nH]4)n[nH]c3[C@@H]12
Activity [1]: inactive

C[C@@H]1[C@H]2Cc3c(-c4nnn[nH]4)n[nH]c3[C@@H]12
Activity [1]: inactive

CC(C)CC[C@@H]1C2Cc3c(-c4nnn[nH]4)n[nH]c3[C@H]21 (stereo not given in full)
Activity [1]: inactive

COC[C@@H]1[C@H]2Cc3c(-c4nnn[nH]4)n[nH]c3[C@@H]12
Activity [1]: inactive

C=C[C@@H]1[C@H]2Cc3c(-c4nnn[nH]4)n[nH]c3[C@@H]12
Activity [1]: inactive

C=C[C@H]1[C@H]2Cc3c(-c4nnn[nH]4)n[nH]c3[C@@H]12
Activity [1]: inactive

C1c2c(-c3nnn[nH]3)n[nH]c2C2CC12 (racemic)
Activity [1]: inactive

C1Cc2[nH]nc(-c3nn[nH]n3)c2C1
IC50 [2]: 870 nM
ED50 (Mus musculus [3]): 3.1 mg/kg
Activity [1]: inactive

CCC[C@@H]1[C@H]2Cc3c(-c4nnn[nH]4)n[nH]c3[C@@H]12
Activity [4]: Active
Activity [1]: inactive

CCCC[C@@H]1[C@H]2Cc3c(-c4nnn[nH]4)n[nH]c3[C@@H]12
Activity [4]: Active
Activity [1]: inactive

CC(C)C[C@@H]1[C@H]2Cc3c(-c4nnn[nH]4)n[nH]c3[C@H]21
Activity [4]: Active
Activity [1]: inactive

C=CC[C@@H]1[C@H]2Cc3c(-c4nnn[nH]4)n[nH]c3[C@@H]12
Activity [1]: inactive

O=C(O)c1cccnc1 [NIACIN]
IC50 [2]: 60 nM
Activity [1]: inactive

C1c2c(-c3nnn[nH]3)n[nH]c2[C@H]2C[C@@H]12 (stereo in doubt; (+)17a)
Activity (Mus musculus [5]): Active
Activity (Mus musculus [6]): inactive
Activity [1]: inactive
Activity (Mus musculus [7]): inactive

CCCCC[C@H]1[C@H]2Cc3c(-c4nnn[nH]4)n[nH]c3[C@H]21
Activity [1]: inactive

C1c2c(-c3nnn[nH]3)n[nH]c2[C@H]2C[C@@H]12 (stereo in doubt; (+)17a) [3-(1H-TETRAZOL-5-YL)-4,4A,5,5A-TETRAHYDRO-1H-CYCLOPROPA[4,5]CYCLOPENTA[1,2-C]PYRAZOLE (STRUCTURAL MIX)]
Cmax [8]: 2 µM
IC50 [2]: 90 nM
Cmax [9]: 11.7 µM
Vd [10]: 0.96 L/kg
Vd [11]: 3.4 L/kg
clearance [12]: 13.9 mL/min/kg
Vd [13]: 0.53 L/kg
Cmax [14]: 36.9 µM
bioavailability [15]: > 100%
clearance [16]: 25.5 mL/min/kg
Cmax [17]: 4.9 µM
ED50 (Mus musculus [3]): 0.52 mg/kg
bioavailability [18]: 97%
half-life [19]: 2.4 h
clearance [20]: 61.6 mL/min/kg
bioavailability [21]: > 100%
clearance [22]: 12.4 mL/min/kg
bioavailability [23]: 37%
Vd [24]: 0.34 L/kg
half-life [25]: 7.3 h
half-life [26]: 1.9 h
half-life [27]: 1.9 h

C1CCC2(C1)[C@@H]1c3[nH]nc(-c4nnn[nH]4)c3C[C@@H]12
Activity [1]: inactive

CC[C@@H]1[C@H]2Cc3c(-c4nnn[nH]4)n[nH]c3[C@@H]12
Activity [1]: inactive

C[C@H]1[C@H]2Cc3c(-c4nnn[nH]4)n[nH]c3[C@@H]12
Activity [1]: inactive

CCCCC[C@@H]1[C@H]2Cc3c(-c4nnn[nH]4)n[nH]c3[C@@H]12
Activity [1]: inactive

C=CC[C@H]1[C@H]2Cc3c(-c4nnn[nH]4)n[nH]c3[C@H]21
Activity [1]: inactive

C1CC1[C@@H]1[C@H]2Cc3c(-c4nnn[nH]4)n[nH]c3[C@H]21
Activity [1]: inactive

C1c2c(-c3nnn[nH]3)n[nH]c2[C@H]2C[C@@H]12 (stereo in doubt; (-)17a)
Activity [1]: inactive
